Results taken from ChEMBL document CHEMBL2163311, “Anti-herpes simplex virus efficacies of 2-aminobenzamide derivatives as novel HSP90 inhibitors” (Bioorg Med Chem Lett, 2012).
Active and inactive are the calls of the source. The rule behind the calls is not given here.

Experiments:
[1] = Cytotoxicity against human MRC5 cells after 48 hrs by MTT assay; type: cell-based
Human alphaherpesvirus 1 [2] = test: Antiviral activity against HSV1 infected herpes simplex keratitis New zealand rabbit model assessed as reduction in viral DNA level in corneal sample at 0.025% to 0.1% administered twice daily as gel 24 hrs post inoculation measured on day 9 post infection by RT-PCR analysis; type: functional, organism-based; conditions: Cornea
Human alphaherpesvirus 1 [3] = test: Antiviral activity against HSV1 strain F ATCC VR733 infected in african green monkey Vero cells assessed as inhibition of cytopathic effect at 4 uM after 48 hrs by plaque reduction assay; type: functional, organism-based
Human alphaherpesvirus 1 [4] = test: Antiviral activity against HSV1 infected herpes simplex keratitis New zealand rabbit model assessed as reduction in corneal epithelia involvement score at 0.025% to 0.1% administered twice daily as gel 24 hrs post inoculation measured on day 9 post infection; type: functional, organism-based; conditions: Cornea
Human alphaherpesvirus 1 [5] = test: Antiviral activity against HSV1 strain F ATCC VR733 infected in african green monkey Vero cells assessed as inhibition of cytopathic effect after 48 hrs by plaque reduction assay; type: functional, organism-based; conditions: for EC50: Human alphaherpesvirus 1, strain F ATCC VR733, Vero
Human alphaherpesvirus 1 [6] = test: Antiviral activity against HSV1 infected herpes simplex keratitis New zealand rabbit model at 0.025% to 0.1% administered twice daily as gel 24 hrs post inoculation measured on day 9 post infection; type: functional, organism-based
Human alphaherpesvirus 2 [7] = test: Antiviral activity against HSV2 strain 333 infected in african green monkey Vero cells assessed as inhibition of cytopathic effect at 4 uM after 48 hrs by plaque reduction assay; type: functional, cell-based
[8] = Selectivity index, ratio of CC50 for african green monkey Vero cells to EC50 for HSV1 strain F ATCC VR733 infected in african green monkey Vero cells; type: toxicity, cell-based; conditions: read-out: Ratio CC50/EC50
[9] = Cytotoxicity against african green monkey Vero cells assessed as inhibition of cell viability after 48 hrs by MTT assay; type: cell-based; conditions: chlorocebus sabaeus
Human alphaherpesvirus 2 [10] = test: Antiviral activity against HSV2 strain 333 infected in african green monkey Vero cells assessed as inhibition of cytopathic effect after 48 hrs by plaque reduction assay; type: functional, cell-based; conditions: for EC50: Human alphaherpesvirus 2, strain 333, Vero
[11] = Selectivity index, ratio of CC50 for african green monkey Vero cells to EC50 for HSV2 strain 333 infected in african green monkey Vero cells
Human alphaherpesvirus 1 [12] = test: Antiviral activity against HSV1 infected herpes simplex keratitis New zealand rabbit model assessed as reduction in viral DNA level in corneal sample compound administered twice daily as gel 24 hrs post inoculation measured on day 9 post infection by RT-PCR analysis; type: functional, organism-based; conditions: Cornea
Human alphaherpesvirus 1 [13] = test: Antiviral activity against HSV1 infected herpes simplex keratitis New zealand rabbit model at 0.025% administered twice daily as gel 24 hrs post inoculation measured on day 9 post infection; type: functional
Human alphaherpesvirus 1 [14] = test: Antiviral activity against HSV1 infected herpes simplex keratitis New zealand rabbit model at 0.1% administered twice daily as gel 24 hrs post inoculation measured on day 9 post infection; type: functional
Human alphaherpesvirus 2 [15] = test: Antiviral activity against HSV2 strain 333 infected in african green monkey Vero cells assessed as inhibition of cytopathic effect at 3.5 uM after 48 hrs by plaque reduction assay; type: functional, cell-based
Human alphaherpesvirus 1 [16] = test: Antiviral activity against HSV1 strain F ATCC VR733 infected in african green monkey Vero cells assessed as inhibition of cytopathic effect at 3.5 uM after 48 hrs by plaque reduction assay; type: functional, organism-based

## Cc1cn(-c2ccc(C(N)=O)c(N[C@H]3CC[C@H](O)CC3)c2)c2c1C(=O)CC(C)(C)C2
[1]
  CC50 at 48 h: 24900 nM
Human alphaherpesvirus 1 [2]
  Activity: Active
Human alphaherpesvirus 1 [3]
  inhibition: Active
Human alphaherpesvirus 1 [4]
  Activity: Active
Human alphaherpesvirus 1 [5]
  inhibition: Dose-dependent effect
  EC50: 1030 nM
Human alphaherpesvirus 1 [6]
  Activity: Active
Human alphaherpesvirus 2 [7]
  inhibition: Active
[8]
  selectivity ratio: 12.6
[9]
  CC50 at 48 h: 12900 nM
Human alphaherpesvirus 2 [10]
  inhibition: Dose-dependent effect
  EC50: 1000 nM
[11]
  Ratio CC50/EC50: 12.94
Human alphaherpesvirus 1 [12]
  Activity: Dose-dependent effect

## Cc1nn(-c2ccc(C(N)=O)c(N[C@H]3CC[C@H](O)CC3)c2)c2c1C(=O)CC(C)(C)C2
[1]
  CC50 at 48 h: 54100 nM
Human alphaherpesvirus 1 [13]
  Activity: 74.23%
Human alphaherpesvirus 1 [14]
  Activity: 83.76%
Human alphaherpesvirus 1 [2]
  Activity: Active
Human alphaherpesvirus 1 [3]
  inhibition: Active
Human alphaherpesvirus 1 [4]
  Activity: Active
Human alphaherpesvirus 1 [5]
  inhibition: Dose-dependent effect
  EC50: 2240 nM
Human alphaherpesvirus 1 [6]
  Activity: Active
Human alphaherpesvirus 2 [7]
  inhibition: Active
[8]
  selectivity ratio: 12.1
[9]
  CC50 at 48 h: 27100 nM
Human alphaherpesvirus 2 [10]
  inhibition: Dose-dependent effect
  EC50: 1750 nM
[11]
  Ratio CC50/EC50: 15.46
Human alphaherpesvirus 1 [12]
  Activity: Dose-dependent effect

## CC1(C)CC(=O)c2c(C(F)(F)F)nn(-c3ccc(C(N)=O)c(N[C@H]4CC[C@H](O)CC4)c3)c2C1 [SNX-2112]
[1]
  CC50 at 48 h: 21300 nM
Human alphaherpesvirus 1 [2]
  Activity: Active
Human alphaherpesvirus 1 [3]
  inhibition: Active
Human alphaherpesvirus 1 [4]
  Activity: Active
Human alphaherpesvirus 1 [5]
  inhibition: Dose-dependent effect
  EC50: 2260 nM
Human alphaherpesvirus 1 [6]
  Activity: Active
Human alphaherpesvirus 2 [7]
  inhibition: Active
[8]
  selectivity ratio: 5.9
[9]
  CC50 at 48 h: 13300 nM
Human alphaherpesvirus 2 [10]
  inhibition: Dose-dependent effect
  EC50: 1850 nM
[11]
  Ratio CC50/EC50: 7.21
Human alphaherpesvirus 1 [12]
  Activity: Dose-dependent effect

## Nc1nc2c(ncn2COCCO)c(=O)[nH]1 [ACYCLOVIR]
Human alphaherpesvirus 2 [15]
  inhibition: Active
Human alphaherpesvirus 1 [2]
  Activity: Active
Human alphaherpesvirus 1 [4]
  Activity: Active
Human alphaherpesvirus 1 [5]
  EC50: 1200 nM
Human alphaherpesvirus 1 [16]
  inhibition: Active
[8]
  selectivity ratio: > 167
[9]
  CC50 at 48 h: > 200000 nM
Human alphaherpesvirus 2 [10]
  EC50: 1870 nM
[11]
  Ratio CC50/EC50: >106.95
Human alphaherpesvirus 1 [12]
  Activity: Dose-dependent effect
